The values below come from patent US9278914B2, “SARMs and method of use thereof” (UNIVERSITY OF TENNESSEE RESEARCH FOUNDATION, priority 2004, dated 2016).

What all share (assay type): in vivo, rat
Assay [1] has as its system castrated male Sprague-Dawley rats. The experiment in a line: Anabolic and androgenic activity of SARM panel in castrated male rats, sc 1 mg/d for 14 d. As to conditions: 1 mg/d sc 14 d. How it is done: The in vivo pharmacological activity of each synthetic AR ligand (listed in Table 4, below) was examined in five male Sprague-Dawley rats weighing approximately 200 g. Animals were castrated via a scrotal incision under anesthesia 24 h before drug treatments and received daily sc injections of the compound of interest at a dose rate of 1 mg/d for 14 d. All compounds of interest were freshly dissolved in vehicle containing dimethylsulfoxide (5%, vol/vol) in polyethylene glycol 300 before dose administration. An additional two groups of animals with or without castration received vehicle only and served as castrated or intact control groups, respectively. Animals were killed at the end of the treatment. Plasma samples were collected and stored at −80° C. for future use. The ventral prostate, seminal vesicles, and levator ani muscle were removed, cleared of extraneous tissue, and weighed. All organ weights were normalized to body weight and compared. The weights of prostate and seminal vesicles were used to evaluate androgenic activity, whereas the levator ani muscle weight was used as a measure of anabolic activity. […] The results are graphically depicted in FIGS. 3 and 4.

Assay [2] concerns castrated (ORX) male Sprague-Dawley rats. The experiment in a line: Anabolic and androgenic activity in castrated (ORX) male rats, daily oral gavage for fourteen days. As to conditions: ORX rats. On the procedure: Male Sprague-Dawley rats weighing approximately 200 g were purchased from Harlan Bioproducts for Science (Indianapolis, Ind.).
The test article for this study was weighed and dissolved in 10% DMSO (Fisher) diluted with PEG 300 (Acros Organics, N.J.) for preparation of the appropriate dosage concentrations. […] Animals were randomly assigned to one of seven groups consisting of 4 to 5 animals per group. Control groups (intact and ORX) were administered vehicle daily. […] Where appropriate, animals were castrated on day one of the study.
(§1) In addition, ventral prostate, seminal vesicles, and levator ani muscle were removed, individually weighed, normalized to body weight, and expressed as a percentage of intact control. Student's T-test was used to compare individual dose groups to the intact control group. Significance was defined a priori as a P-value<0.05. Ventral prostate and seminal vesicle weights were evaluated as a measure of androgenic activity, whereas levator ani muscle weight was evaluated as a measure of anabolic activity. Blood was collected from the abdominal aorta, centrifuged, and sera were frozen at −80° C. prior to determination of serum hormone levels. Serum luteinizing hormone (LH) and follicle stimulating hormone (FSH) concentrations were determined.
(§2) The test article for this study was weighed and dissolved in 10% DMSO (Fisher) diluted with PEG 300 (Acros Organics, N.J.) for preparation of the appropriate dosage concentrations. […] Animals were randomly assigned to one of seven groups consisting of 4 to 5 animals per group. Control groups (intact and ORX) were administered vehicle daily. Compound of formula S-XXIII was administered via oral gavage at doses of 0.01, 0.03, 0.1, 0.3, 0.75, and 1 mg/day to both intact and ORX groups. Where appropriate, animals were castrated on day one of the study. Treatment with compound of formula S-XXIII began nine days post ORX and was administered daily via oral gavage for fourteen days.
Male Sprague-Dawley rats weighing approximately 200 g were purchased from Harlan Bioproducts for Science (Indianapolis, Ind.). […] Regenerative effects of the compound of formula S-XXIV in chronically (9 days) ORX rats was similarly evaluated.
as §2, with “S-XXIV” for “S-XXIII”
Male Sprague-Dawley rats weighing approximately 200 g were purchased from Harlan Bioproducts for Science (Indianapolis, Ind.). […] Anabolic and androgenic activity of compound of formula S-XXV in intact animals was evaluated, and the dose response in acutely orchidectomized (ORX) animals was evaluated as well.
The compound was weighed and dissolved in 10% DMSO (Fisher) diluted with PEG 300 (Acros Organics, N.J.) for preparation of the appropriate dosage concentrations.

In assay [3] the test system is intact male Sprague-Dawley rats. The experiment in a line: Anabolic and androgenic activity in intact male rats, daily oral gavage. On the procedure:
The test article for this study was weighed and dissolved in 10% DMSO (Fisher) diluted with PEG 300 (Acros Organics, N.J.) for preparation of the appropriate dosage concentrations. The animals were housed in groups of 2 to 3 animals per cage. Animals were randomly assigned to one of seven groups consisting of 4 to 5 animals per group. Control groups (intact and ORX) were administered vehicle daily. […] Where appropriate, animals were castrated on day one of the study. Treatment with compound of formula S-II began nine days post ORX and was administered daily via oral gavage for fourteen days.
as §1, with “The animals were sacrificed under anesthesia (ketamine/xyalzine, 87:13 mg/kg) and body weights were recorded. In” for “In”
(§3) The test article for this study was weighed and dissolved in 10% DMSO (Fisher) diluted with PEG 300 (Acros Organics, N.J.) for preparation of the appropriate dosage concentrations. The animals were housed in groups of 2 to 3 animals per cage. Animals were randomly assigned to one of seven groups consisting of 4 to 5 animals per group. Control groups (intact and ORX) were administered vehicle daily. Compound of formula S-XXIII was administered via oral gavage at doses of 0.01, 0.03, 0.1, 0.3, 0.75, and 1 mg/day to both intact and ORX groups. Where appropriate, animals were castrated on day one of the study. Treatment with compound of formula S-XXIII began nine days post ORX and was administered daily via oral gavage for fourteen days.
as §3, with “S-XXIV” for “S-XXIII”, “study.” for “study. Treatment with compound of formula S-XXIII began nine days post ORX and was administered daily via oral gavage for fourteen days.”

The mark [4] stands for this setting: nonlinear regression, sigmoid Emax model.

In the case of `C[C@](O)(COc1ccc(F)c(F)c1)C(=O)Nc1ccc([N+](=O)[O-])c(C(F)(F)F)c1` [C-3], in assay [1], the “Levator ani weight versus intact control” value was “same as or in excess of intact control”.
For `C[C@](O)(COc1cc(Cl)c(Cl)cc1Cl)C(=O)Nc1ccc([N+](=O)[O-])c(C(F)(F)F)c1` [C-22], in assay [1], the Levator ani agonism is recorded as > 75 % of intact control and the Ventral prostate weight is < 25 % of intact control.
`C[C@](O)(COc1ccc(Cl)c(Cl)c1)C(=O)Nc1ccc([N+](=O)[O-])c(C(F)(F)F)c1` [C-10]: in assay [1], the “Levator ani weight versus intact control” value is “same as or in excess of intact control”.
As to `C[C@](O)(COc1ccc(F)cc1)C(=O)Nc1ccc([N+](=O)[O-])c(C(F)(F)F)c1` [S-1], in assay [1], the Levator ani agonism is reported as > 75 % of intact control and the Ventral prostate weight is < 25 % of intact control.
Consider `C[C@](O)(COc1cc(F)c(F)cc1F)C(=O)Nc1ccc([N+](=O)[O-])c(C(F)(F)F)c1` [C-18], for which the “Levator ani weight versus intact control” value in assay [1] is on record as “same as or in excess of intact control”.
Turning to `C[C@](O)(COc1ccc(F)c(Cl)c1)C(=O)Nc1ccc([N+](=O)[O-])c(C(F)(F)F)c1` [C-4], in assay [1], the Levator ani agonism was > 75 % of intact control and the Ventral prostate weight is on record as < 25 % of intact control.
For the compound `C[C@](O)(COc1ccc([N+](=O)[O-])c(F)c1)C(=O)Nc1ccc([N+](=O)[O-])c(C(F)(F)F)c1` [C-11], in assay [1], the “Levator ani weight versus intact control” value is reported as “same as or in excess of intact control”.
Same read-out and setting: under `C[C@](O)(COc1ccc(Cl)cc1F)C(=O)Nc1ccc([N+](=O)[O-])c(C(F)(F)F)c1` [C-8] stands “same as or in excess of intact control”.
For `C[C@](O)(COc1c(F)c(F)c(F)c(F)c1F)C(=O)Nc1ccc([N+](=O)[O-])c(C(F)(F)F)c1` [C-23], in assay [1], the Levator ani agonism was > 75 % of intact control and the Ventral prostate weight is reported as < 25 % of intact control.
Turning to `C[C@](O)(COc1ccc(F)cc1F)C(=O)Nc1ccc([N+](=O)[O-])c(C(F)(F)F)c1` [C-1], in assay [1], the Levator ani agonism is recorded as > 75 % of intact control and the Ventral prostate weight was < 25 % of intact control.
`C[C@](O)(COc1ccc(Cl)c(F)c1)C(=O)Nc1ccc([N+](=O)[O-])c(C(F)(F)F)c1` [C-6]: in assay [1], the “Levator ani weight versus intact control” value was “same as or in excess of intact control”.
For `C[C@](O)(COc1ccc(C#N)c(F)c1)C(=O)Nc1ccc(C#N)c(C(F)(F)F)c1` [S-XXIII], in assay [2], the “Dose able to fully restore/maintain levator ani muscle weight” value amounted to 0.03 mg/day. In addition, in assay [2], the ED50 levator ani stood at 0.03 ± 0.01 mg/day. In assay [2], this compound yielded an ED50 prostate of 0.21 ± 0.04 mg/day. This compound gave an ED50 seminal vesicles in assay [2] of 0.2 ± 0.04 mg/day. Besides, the “Levator ani muscle weight” value in assay [2] (0.01 mg/day oral) was 71%±4%; in assay [2] (0.03 mg/day oral), 101%±15%; in assay [2] (0.1 mg/day oral), 125%±20%; in assay [2] (0.3 mg/day oral), 126%±14%; in assay [2] (0.75 mg/day oral), 151±9 % of intact controls; in assay [2] (1 mg/day oral), 143±17 % of intact controls. Besides, the “Levator ani muscle weight” value was 116%±7% in assay [3] (0.01 mg/day oral); 134%±8% in assay [3] (0.03 mg/day oral); 134%±21% in assay [3] (0.1 mg/day oral); 134%±11% in assay [3] (0.3 mg/day oral); 142%±10% in assay [3] (0.75 mg/day oral); 147%±10% in assay [3] (1 mg/day oral). Moreover, the Prostate weight in assay [2] (0.01 mg/day oral) is 24%±4%; in assay [2] (0.03 mg/day oral) it was 37%±9%; in assay [2] (0.1 mg/day oral), 50%±11%; in assay [2] (0.3 mg/day oral) it was 88%±16%; in assay [2] (0.75 mg/day oral), 132%±16%; in assay [2] (1 mg/day oral), 118±12 % of intact controls. Moreover, the Prostate weight in assay [3] (0.01 mg/day oral) is 98%±21%; in assay [3] (0.03 mg/day oral), 99%±8%; in assay [3] (0.1 mg/day oral), 85%±18%; in assay [3] (0.3 mg/day oral), 98%±22%; in assay [3] (0.75 mg/day oral) it was 126%±17%; in assay [3] (1 mg/day oral), 126%±17%. Also, the Seminal vesicle weight in assay [2] (0.01 mg/day oral) is 15%±2%; in assay [2] (0.03 mg/day oral), 25%±9%; in assay [2] (0.1 mg/day oral) it was 67%±20%; in assay [2] (0.3 mg/day oral) it was 113%±6%; in assay [2] (0.75 mg/day oral), 155%±16%; in assay [2] (1 mg/day oral) it was 160%±7%. Besides, the Seminal vesicle weight is 115%±12% in assay [3] (0.01 mg/day oral); 109%±17% in assay [3] (0.03 mg/day oral); 106%±13% in assay [3] (0.1 mg/day oral); 121%±11% in assay [3] (0.3 mg/day oral); 157%±5% in assay [3] (0.75 mg/day oral); 136%±3% in assay [3] (1 mg/day oral). The Emax levator ani in assay [2] (setting [4]) is on record as 147%±10%. Further, in assay [2] (setting [4]), the Emax prostate is listed as 147%±10%. For the same compound, the Emax seminal vesicles in assay [2] (setting [4]) is reported as 188%±135%.
